Data: ChEMBL document CHEMBL2086302, “An investigation into the structure-activity relationships associated with the systematic modification of the β(2)-adrenoceptor agonist indacaterol” (Bioorg Med Chem Lett, 2012)

Key:
[1] = biological target: Beta-1 adrenergic receptor (Homo sapiens, UniProt P08588); experiment: Binding affinity to human beta1-adrenoceptor by radioligand binding assay
[2] = biological target: T1, Beta-2 adrenergic receptor (Homo sapiens, UniProt P07550); experiment: Binding affinity to human beta2-adrenoceptor by radioligand binding assay
Target sequence in this assay (P07550 whole entry): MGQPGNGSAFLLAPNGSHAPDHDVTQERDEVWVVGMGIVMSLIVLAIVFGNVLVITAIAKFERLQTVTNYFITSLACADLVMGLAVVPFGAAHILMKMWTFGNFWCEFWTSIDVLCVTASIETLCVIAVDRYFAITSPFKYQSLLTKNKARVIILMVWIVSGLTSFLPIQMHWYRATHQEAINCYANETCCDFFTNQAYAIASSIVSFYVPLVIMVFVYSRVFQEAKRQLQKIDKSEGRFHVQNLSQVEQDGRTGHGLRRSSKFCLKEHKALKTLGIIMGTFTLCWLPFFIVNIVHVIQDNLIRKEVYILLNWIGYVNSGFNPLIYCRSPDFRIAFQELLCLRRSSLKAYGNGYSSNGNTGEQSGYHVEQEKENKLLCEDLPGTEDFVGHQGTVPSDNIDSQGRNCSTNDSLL

Homo sapiens = species: Homo sapiens; experiment: Selectivity ratio of Ki for human beta1-adrenoceptor to Ki for human beta2-adrenoceptor
[3] = biological target: Beta-2 adrenergic receptor (Cavia porcellus, UniProt Q8K4Z4); experiment: Agonist activity at beta2-adrenoceptor in guinea-pig tracheal-strip assessed as inhibition of electrically-stimulated muscle contraction; type: functional, tissue-based, Trachea
D(2) dopamine receptor [4] = biological target: T2, D(2) dopamine receptor (Homo sapiens, UniProt P14416); experiment: Agonist activity at human dopamine D2 receptor expressed in CHO cells assessed as increase in GTPgamma35S binding by scintillation proximity assay; type: functional, cell-based
[5] = biological target: Beta-2 adrenergic receptor (Cavia porcellus) (UniProt Q8K4Z4); experiment: Agonist activity at beta2-adrenoceptor in guinea-pig tracheal-strip assessed as duration of action on inhibition of electrically-stimulated muscle contraction; type: functional, tissue-based; details: Trachea
Rhesus monkey = experiment: Bronchorelaxant activity in rhesus monkey assessed as inhibition of methacholine-induced bronchoconstriction; type: functional; details: Macaca mulatta
[6] = biological target: T1, Beta-2 adrenergic receptor; experiment: Intrinsic efficacy at beta2-adrenoceptor in human bronchial smooth-muscle cell by cAMP assay; type: functional
Target sequence in this assay (P07550 whole entry, looked up): as the sequence (P07550 whole entry) above

[7] = biological target: T1, Beta-2 adrenergic receptor; experiment: Kinetic binding affinity to human beta2-adrenoceptor
Target sequence in this assay (P07550 whole entry): as above

[8] = biological target: T1, Beta-2 adrenergic receptor; experiment: Ratio of indacaterol Ki to compound Ki for human beta2-adrenoceptor
Target sequence in this assay (P07550 whole entry, looked up): as the sequence (P07550 whole entry) above

[9] = biological target: T1, Beta-2 adrenergic receptor; experiment: Ratio of indacaterol EC50 to compound EC50 for beta2-adrenoceptor in human bronchial smooth-muscle cell by cAMP assay; type: functional
Target sequence in this assay (P07550 whole entry, looked up): as the sequence (P07550 whole entry) above

[10] = biological target: T1, Beta-2 adrenergic receptor; experiment: Agonist activity at beta2-adrenoceptor in human bronchial smooth-muscle cell by cAMP assay; type: functional
Target sequence in this assay (P07550 whole entry): as above

D(2) dopamine receptor [11] = biological target: T2, D(2) dopamine receptor; experiment: Intrinsic efficacy at human dopamine D2 receptor expressed in CHO cells assessed as increase in GTPgamma35S binding by scintillation proximity assay relative to dopamine; type: functional, cell-based

T2 sequence (P14416 whole entry): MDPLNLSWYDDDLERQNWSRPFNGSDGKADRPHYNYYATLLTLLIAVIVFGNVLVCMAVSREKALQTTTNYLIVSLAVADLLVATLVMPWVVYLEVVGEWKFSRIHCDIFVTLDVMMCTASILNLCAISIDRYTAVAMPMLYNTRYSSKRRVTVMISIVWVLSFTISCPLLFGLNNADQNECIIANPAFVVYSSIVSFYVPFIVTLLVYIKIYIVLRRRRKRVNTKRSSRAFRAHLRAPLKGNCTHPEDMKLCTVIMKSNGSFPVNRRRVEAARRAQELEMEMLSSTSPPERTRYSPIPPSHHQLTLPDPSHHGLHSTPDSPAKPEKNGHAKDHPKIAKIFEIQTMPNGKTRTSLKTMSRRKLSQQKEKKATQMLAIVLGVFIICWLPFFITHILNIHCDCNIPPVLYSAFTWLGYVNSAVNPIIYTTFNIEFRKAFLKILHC
Beta-1 adrenergic receptor, sequence (P08588 whole entry): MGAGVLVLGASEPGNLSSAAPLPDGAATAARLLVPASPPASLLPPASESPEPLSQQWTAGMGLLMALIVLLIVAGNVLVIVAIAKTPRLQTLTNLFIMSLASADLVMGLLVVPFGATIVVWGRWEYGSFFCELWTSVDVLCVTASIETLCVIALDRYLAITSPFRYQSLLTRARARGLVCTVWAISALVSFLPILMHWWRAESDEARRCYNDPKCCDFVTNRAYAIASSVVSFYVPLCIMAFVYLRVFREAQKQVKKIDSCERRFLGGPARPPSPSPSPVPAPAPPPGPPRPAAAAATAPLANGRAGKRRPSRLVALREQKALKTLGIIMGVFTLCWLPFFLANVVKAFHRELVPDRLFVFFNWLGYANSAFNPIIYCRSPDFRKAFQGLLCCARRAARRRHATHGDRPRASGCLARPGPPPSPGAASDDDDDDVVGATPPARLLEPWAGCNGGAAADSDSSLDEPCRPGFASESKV
Beta-2 adrenergic receptor (Cavia porcellus), sequence (Q8K4Z4 whole entry, looked up): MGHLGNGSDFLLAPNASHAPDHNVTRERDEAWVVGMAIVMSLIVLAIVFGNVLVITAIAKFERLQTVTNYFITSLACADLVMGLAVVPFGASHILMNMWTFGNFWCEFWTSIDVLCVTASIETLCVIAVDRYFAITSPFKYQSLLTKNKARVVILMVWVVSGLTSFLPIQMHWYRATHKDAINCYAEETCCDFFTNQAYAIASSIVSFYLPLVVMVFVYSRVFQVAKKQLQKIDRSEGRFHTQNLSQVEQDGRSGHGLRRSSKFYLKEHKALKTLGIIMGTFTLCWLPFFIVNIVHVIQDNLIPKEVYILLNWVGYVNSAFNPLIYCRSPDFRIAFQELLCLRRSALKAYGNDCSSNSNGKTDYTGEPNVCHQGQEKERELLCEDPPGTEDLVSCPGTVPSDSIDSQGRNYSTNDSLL
Beta-2 adrenergic receptor (Cavia porcellus, UniProt Q8K4Z4), sequence (Q8K4Z4 whole entry): as the sequence (Q8K4Z4 whole entry, looked up) above

Compound	Ki [1] [nM]	Ki [2] [nM]	Ratio Ki (Homo sapiens)	TIME [5] [h]	also measured
CCCCc1ccc2c(c1)CC(NC[C@H](O)c1ccc(O)c3[nH]c(=O)ccc13)C2 (some centres undefined)	259	19.4	13.4	–	–
CCc1cc2c(cc1CC)CC(NCCc1ccc(O)c3[nH]c(=O)ccc13)C2	478	261	1.8	2.18	IC50 [3]: 240 nM; EC50 (D(2) dopamine receptor [4]): > 10000 nM
CCc1cc2c(cc1CC)CC(NC[C@H](O)c1ccc(O)c3c1CCC(=O)N3)C2	183	45	4.1	0.542	ED80 (Rhesus monkey): 0.0532 mg/kg; IC50 [3]: 3.9 nM
CCc1cc2c(cc1CC)CC(C)(NC[C@H](O)c1ccc(O)c3[nH]c(=O)ccc13)C2	1.9	0.6	3.2	–	Efficacy [6]: 116%; Kd [7]: 0.26 nM; Ratio Ki [8]: > 10; Ratio EC50 [9]: 7.3; EC50 [10]: 0.28 nM
NC(=O)C(c1ccccc1)(c1ccccc1)[C@@H]1CCN(CCc2ccc3c(c2)CCO3)C1 [DARIFENACIN]	–	–	–	0.5	Efficacy [6]: 85%
Cc1c(C)c(C)c2c(c1C)CC(NC[C@H](O)c1ccc(O)c3[nH]c(=O)ccc13)C2	421	175	2.4	–	–
CCc1cc2c(cc1CC)CC(NCC(O)c1c(C)cc(O)c3[nH]c(=O)ccc13)C2 (racemic)	> 10000	515	> 19	–	–
O=c1[nH]c2c(O)ccc(CCNCCS(=O)(=O)CCCOCCc3ccccc3)c2s1 [SIBENADET]	3920	4	981	–	Efficacy (D(2) dopamine receptor [11]): 106%; EC50 (D(2) dopamine receptor [4]): 4.5 nM
CCc1cc2c(cc1CC)CC(NCC(O)c1ccc(O)c3[nH]c(=O)c(C)cc13)C2 (racemic)	227	382	0.59	–	–
